According to ChEMBL document CHEMBL5325501, “Discovery of BWA-522, a First-in-Class and Orally Bioavailable PROTAC Degrader of the Androgen Receptor Targeting N-Terminal Domain for the Treatment of Prostate Cancer” (J Med Chem, 2023):
The source made the active and inactive calls. No cut-off for these calls is given here.

Experiments:
VCaP [1] = assay: Induction of apoptosis in human VCaP cells assessed as PARP-1 cleavage at 5 to 10 uM incubated for 48 hrs by Western blot analysis; assay type: functional, cell-based; conditions: dose 5-10 µM
[2] = AUC(0 to t) in ICR mouse at 10 mg/kg, po measured by LC-MS/MS analysis; assay type: ADME, organism-based; design: dose 10 mg/kg, route po; conditions: in vivo
[3] = Toxicity in ICR mouse assessed as liver damage at 20 to 60 mg/kg, po administered daily for 14 days; assay type: organism-based; conditions: in vivo, 336 h, dose 20-60 mg/kg, time 14 day
[4] = Toxicity in ICR mouse assessed as body weight loss at 20 to 60 mg/kg, po administered daily for 14 days; assay type: organism-based; conditions: in vivo, 336 h, dose 20-60 mg/kg, time 14 day
VCaP [5] = assay: Downregulation of TMPRSS2 protein level in human VCaP cells incubated for 48 hrs by Western blot analysis; assay type: functional, cell-based; conditions: dose 1-10 µM
[6] = Stability in human plasma assessed as parent compound remaining measured after 45 mins by LC-MS/MS analysis; assay type: ADME, cell-free; conditions: read-out: Stability
[7] = Downregulation of FKBP51 protein level in human VCaP cells at 10 uM incubated for 48 hrs by Western blot analysis relative to control; assay type: functional
[8] = Downregulation of FKBP51 protein level in human LNCaP cells at 10 uM incubated for 48 hrs by Western blot analysis relative to control; assay type: functional
CWR22R [9] = assay: Inhibition of colony formation in human 22Rv1 cells incubated for 2 weeks by crystal violet staining based analysis; assay type: functional, cell-based; conditions: dose 1-10 µM
LNCaP [10] = assay: Antitumor activity against human LNCaP cells xenografted in NOD SCID mouse assessed as inhibition of tumor volume at 20 to 60 mg/kg, po administered daily for 4 weeks; assay type: functional, organism-based; conditions: dose 20-60 mg/kg
[11] = Metabolic stability in human liver microsomes assessed as parent compound remaining at 2 uM preincubated for 10 mins followed by compound addition and measured after 60 mins by LC-MS/MS analysis; assay type: ADME, Microsome; conditions: read-out: Stability
[12] = Downregulation of TMPRSS2 protein level in human VCaP cells at 10 uM incubated for 48 hrs by Western blot analysis relative to control; assay type: functional
[13] = Stability in human plasma assessed as parent compound remaining measured after 30 mins by LC-MS/MS analysis; assay type: ADME, cell-free; conditions: read-out: Stability
LNCaP [14] = assay: Downregulation of TMPRSS2 protein level in human LNCaP cells incubated for 48 hrs by Western blot analysis; assay type: functional, cell-based; conditions: dose 1-10 µM
[15] = Toxicity in ICR mouse assessed as testicle damage at 20 to 60 mg/kg, po administered daily for 14 days; assay type: organism-based; conditions: in vivo, 336 h, dose 20-60 mg/kg, time 14 day
[16] = Stability in human plasma assessed as parent compound remaining measured after 60 mins by LC-MS/MS analysis; assay type: ADME, cell-free; conditions: read-out: Stability
CWR22R [17] = assay: Antiproliferative activity against enzalutamide-resistant human 22Rv1 cells assessed as reduction in cell viability incubated for 6 days by CCK-8 assay; assay type: functional, cell-based; conditions: 22Rv1, 144 h
[18] = Metabolic stability in mouse liver microsomes assessed as intrinsic clearance at 2 uM preincubated for 10 mins in the presence of NADPH followed by compound addition and measured per mg protein after 60 mins by LC-MS/MS analysis; assay type: ADME, Microsome; conditions: read-out: CLH
[19] = Metabolic stability in human liver microsomes assessed as parent compound remaining at 2 uM preincubated for 10 mins in the presence of NADPH followed by compound addition and measured after 60 mins by LC-MS/MS analysis; assay type: ADME, Microsome; conditions: read-out: Stability
[20] = AUC(0 to t) in beagle dog at 1 mg/kg, iv measured by LC-MS/MS analysis; assay type: ADME, organism-based, Canis lupus familiaris; design: dose 1 mg/kg, route iv; conditions: in vivo
[21] = Oral bioavailability in beagle dog at 5 mg/kg measured by LC-MS/MS analysis; assay type: ADME, organism-based, Canis lupus familiaris; conditions: in vivo
LNCaP [22] = assay: Antitumor activity against human LNCaP cells xenografted in NOD SCID mouse assessed as tumor growth inhibition at 60 mg/kg, po administered daily for 4 weeks relative to control; assay type: functional; conditions: 672 h, read-out: TGI
[23] = Half-life in beagle dog at 1 mg/kg, iv measured by LC-MS/MS analysis; assay type: ADME, organism-based, Canis lupus familiaris; conditions: in vivo
[24] = Oral bioavailability in ICR mouse at 10 mg/kg measured by LC-MS/MS analysis; assay type: ADME, organism-based; conditions: in vivo
[25] = Metabolic stability in mouse liver microsomes assessed as parent compound remaining at 2 uM preincubated for 10 mins in the presence of NADPH followed by compound addition and measured after 60 mins by LC-MS/MS analysis; assay type: ADME, Microsome; conditions: read-out: Stability
[26] = Toxicity in ICR mouse assessed as kidney damage at 20 to 60 mg/kg, po administered daily for 14 days; assay type: organism-based; conditions: in vivo, 336 h, dose 20-60 mg/kg, time 14 day
[27] = Toxicity in NOD SCID mouse xenografted with human LNCaP cells assessed as body weight loss at 20 to 60 mg/kg, po administered daily for 4 weeks; assay type: organism-based; conditions: in vivo, 672 h, dose 20-60 mg/kg
LNCaP [28] = assay: Downregulation of PSA protein level in human LNCaP cells incubated for 48 hrs by Western blot analysis; assay type: functional, cell-based; conditions: dose 1-10 µM
[29] = target: Voltage-gated inwardly rectifying potassium channel KCNH2 (Homo sapiens, UniProt Q12809); assay: Inhibition of hERG in HEK293 cells by whole-cell manual patch clamp technique; assay type: toxicity, cell-based
Chain of Voltage-gated inwardly rectifying potassium channel KCNH2 (Q12809 whole entry): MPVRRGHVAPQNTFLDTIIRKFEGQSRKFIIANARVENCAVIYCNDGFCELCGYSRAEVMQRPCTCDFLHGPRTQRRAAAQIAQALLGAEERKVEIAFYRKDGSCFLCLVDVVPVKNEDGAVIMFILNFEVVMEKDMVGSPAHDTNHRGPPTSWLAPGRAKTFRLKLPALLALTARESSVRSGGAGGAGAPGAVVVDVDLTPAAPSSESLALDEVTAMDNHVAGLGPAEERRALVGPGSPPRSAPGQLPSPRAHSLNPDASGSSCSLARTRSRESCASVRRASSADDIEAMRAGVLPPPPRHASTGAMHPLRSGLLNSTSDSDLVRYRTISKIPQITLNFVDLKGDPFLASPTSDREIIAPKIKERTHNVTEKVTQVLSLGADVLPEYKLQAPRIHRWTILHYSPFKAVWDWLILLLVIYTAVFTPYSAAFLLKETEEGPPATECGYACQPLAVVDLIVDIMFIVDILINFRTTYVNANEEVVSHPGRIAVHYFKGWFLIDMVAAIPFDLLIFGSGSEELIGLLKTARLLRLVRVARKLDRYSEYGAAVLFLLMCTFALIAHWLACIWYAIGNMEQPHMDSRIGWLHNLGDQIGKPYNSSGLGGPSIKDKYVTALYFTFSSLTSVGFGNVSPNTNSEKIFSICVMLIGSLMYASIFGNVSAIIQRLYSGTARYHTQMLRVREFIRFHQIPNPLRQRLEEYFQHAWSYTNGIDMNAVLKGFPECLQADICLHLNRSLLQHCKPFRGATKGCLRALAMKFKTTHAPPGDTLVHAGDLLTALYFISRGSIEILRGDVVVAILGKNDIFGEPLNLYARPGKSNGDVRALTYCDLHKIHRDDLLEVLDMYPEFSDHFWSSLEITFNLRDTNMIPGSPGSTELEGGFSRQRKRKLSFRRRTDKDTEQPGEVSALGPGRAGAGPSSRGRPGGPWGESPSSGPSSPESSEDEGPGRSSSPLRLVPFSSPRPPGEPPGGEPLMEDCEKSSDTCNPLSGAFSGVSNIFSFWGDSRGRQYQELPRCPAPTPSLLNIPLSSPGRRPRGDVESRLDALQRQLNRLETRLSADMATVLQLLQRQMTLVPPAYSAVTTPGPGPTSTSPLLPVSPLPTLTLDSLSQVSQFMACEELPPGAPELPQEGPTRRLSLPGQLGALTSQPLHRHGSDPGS

VCaP [30] = assay: Antiproliferative activity against AR-dependent human VCaP cells assessed as reduction in cell viability at 3 to 10 uM incubated for 6 days by CCK-8 assay; assay type: functional, cell-based; conditions: dose 3-10 µM, time 6.0 day
LNCaP [31] = assay: Antitumor activity against human LNCaP cells xenografted in NOD SCID mouse assessed as reduction in tumor weight at 20 to 60 mg/kg, po administered daily for 4 weeks; assay type: functional, organism-based; conditions: dose 20-60 mg/kg
[32] = Cmax in beagle dog at 1 mg/kg, iv measured by LC-MS/MS analysis; assay type: ADME, organism-based, Canis lupus familiaris; design: dose 1 mg/kg, route iv; conditions: in vivo
[33] = Stability in human plasma assessed as parent compound remaining measured immediately by LC-MS/MS analysis; assay type: ADME, cell-free; conditions: read-out: Stability
[34] = Stability in human plasma assessed as parent compound remaining measured after 15 mins by LC-MS/MS analysis; assay type: ADME, cell-free; conditions: read-out: Stability
[35] = Clearance in ICR mouse at 2 mg/kg, iv measured by LC-MS/MS analysis; assay type: ADME, organism-based; conditions: in vivo
LNCaP [36] = assay: Downregulation of FKBP51 protein level in human LNCaP cells incubated for 48 hrs by Western blot analysis; assay type: functional, cell-based; conditions: dose 1-10 µM
LNCaP [37] = assay: Antiproliferative activity against AR-dependent human LNCaP cells assessed as reduction in cell viability at 3 to 10 uM incubated for 6 days by CCK-8 assay; assay type: functional, cell-based; conditions: dose 3-10 µM, time 6.0 day
VCaP [38] = assay: Induction of apoptosis in human VCaP cells assessed as caspase-3 cleavage at 5 to 10 uM incubated for 48 hrs by Western blot analysis; assay type: functional, cell-based; conditions: dose 5-10 µM
[39] = Metabolic stability in mouse liver microsomes assessed as parent compound remaining at 2 uM preincubated for 10 mins followed by compound addition and measured after 60 mins by LC-MS/MS analysis; assay type: ADME, Microsome; conditions: read-out: Stability
[40] = Half-life in beagle dog at 5 mg/kg, po measured by LC-MS/MS analysis; assay type: ADME, organism-based, Canis lupus familiaris; conditions: in vivo
[41] = Tmax in beagle dog at 5 mg/kg, po measured by LC-MS/MS analysis; assay type: ADME, organism-based, Canis lupus familiaris; conditions: in vivo
LNCaP [42] = assay: Antiproliferative activity against human LNCaP cells assessed as reduction in cell viability incubated for 6 days by CCK-8 assay; assay type: functional, cell-based; conditions: 144 h
[43] = Stability in mouse plasma assessed as parent compound remaining measured after 45 mins by LC-MS/MS analysis; assay type: ADME, cell-free; conditions: read-out: Stability

CC(C)(c1ccc(OCC2CCN(CC3CCN(c4ccc5c(c4)C(=O)N(C4CCC(=O)NC4=O)C5=O)CC3)CC2)cc1)c1ccc(OC[C@H](O)CCl)cc1 (stereo partly drawn)
Activity (VCaP [1]): Active | AUC(0-t) [2]: 5950 ng·h/mL | Activity [3]: Non-Toxic | Activity [4]: Non-Toxic | Activity (VCaP [5]): Dose-Dependent Effect | remaining at 0.75 h [6]: 93.9% | Activity [7]: ~25% | Activity [8]: ~25% | inhibition (CWR22R [9]): Dose-Dependent Effect | Activity (LNCaP [10]): Active | remaining at 1 h, 2 µM [11]: 94% | Activity [12]: ~40% | remaining at 0.5 h [13]: 92.1% | Activity (LNCaP [14]): Dose-Dependent Effect | Activity [15]: Non-Toxic | remaining at 1 h [16]: 91.9% | IC50 (CWR22R [17]): 4.08 µM | microsomal CLint at 2 µM [18]: 7.4 µL/min/mg | remaining at 1 h, 2 µM [19]: 80.9% | AUCt [20]: 919 ng·h/mL | F [21]: 69.3% | inhibition in vivo at 60 mg/kg (LNCaP [22]): 76% | half-life [23]: 9.9 h | bioavailability [24]: 40.5% | remaining at 1 h, 2 µM [25]: 78.2% | Activity [26]: Non-Toxic | Activity [27]: Non-Toxic | Activity (LNCaP [28]): Dose-Dependent Effect | IC50 [29]: > 10 µM | Activity (VCaP [30]): Active | Activity (LNCaP [31]): Active | Cmax [32]: 150 ng/mL | remaining at 0 min [33]: 100% | remaining at 0.25 h [34]: 92.2% | clearance [35]: 9.9 mL/min/kg | Activity (LNCaP [36]): Dose-Dependent Effect | Activity (LNCaP [37]): Active | Activity (VCaP [38]): Active | remaining at 1 h, 2 µM [39]: 99.5% | half-life [40]: 31.2 h | Tmax [41]: 2.8 h | IC50 (LNCaP [42]): 1.07 µM | remaining at 0.75 h [43]: 102%
